US11266655B2, “Methods and compositions for treating urea cycle disorders” (Camp4 Therapeutics Corporation, priority 2019, dated 2022)
“And” between values parts separate entries of the source, which are not always exact repeats. Identical values can stand only once. Counter-ions that a name gives are not always drawn. Like-named read-outs stand apart in the source and are kept apart here.

Assays:
NAGS = format: cell-based, human
SLC25A13 = experiment: RNA-seq of compound-treated primary human hepatocytes, SLC25A13 expression; format: cell-based; conditions: primary human hepatocytes, triplicate (Table 23, FIG. 15)
CPS1 [1] = experiment: HSP90 or HSP70 inhibitors in primary human hepatocytes, CPS1 mRNA; format: cell-based; conditions: hepatocytes from Donor B, normalized to B2M
Method: (§1) Additional small molecules that inhibit HSP90 or HSP70 were tested in primary human hepatocytes as described in Example 2. HSP90 or HSP70 inhibitors were tested in triplicate at 0.3 μM and 3 μM. The results are shown as the fold change (mRNA FC) in the mRNA levels of OTC and CPS1 genes after treatment compared to an untreated control (DMSO) and the standard deviation (SD). In addition, a dose titration experiment was performed with selected HSP90 inhibitors. Hepatocytes were incubated with increasing concentrations of HSP90 inhibitors and the changes in OTC and CPS1 expression quantified as previously described.
(§2) HSP90 and HSP70 inhibitors were compared to confirm the role of HSP90 in modulating OTC and CPS1 expression. Hepatocytes from Donor B were incubated with various HSP90 inhibitors or an HSP70 inhibitor, Pifithrin-μ, and then harvested for mRNA quantification. OTC and CPS1 mRNA levels were normalized to B2M.

OTC [2] = experiment: HSP90 or HSP70 inhibitors in primary human hepatocytes, OTC mRNA; format: cell-based; conditions: hepatocytes from Donor B, normalized to B2M
Method: as §1, §2

ARG1 = experiment: RNA-seq of compound-treated primary human hepatocytes, ARG1 expression; format: cell-based
SLC25A15 = experiment: RNA-seq of compound-treated primary human hepatocytes, SLC25A15 expression; format: cell-based
OTC [3] = experiment: OTC expression modulated by compounds, OTC/GeoMean of housekeeping genes, DMSO = 1 (Table 3A); format: cell-based, human; conditions: 10 uM final concentration
OTC [4] = experiment: HSP90 inhibitor dose titration in hepatocytes of donors A and B, OTC mRNA normalized to B2M; format: cell-based, human; conditions: 18 hours
Method: as §1
(§3) Hepatocytes from two different donors (A and B) were incubated with the various concentrations of HSP90 inhibitors for 18 hours and harvested for mRNA analysis. OTC and CPS1 mRNA were normalized to house keeping gene B2M gene expression.

CPS1 [5] = experiment: HSP90 inhibitor dose titration in hepatocytes of donors A and B, CPS1 mRNA normalized to B2M; format: cell-based, human; conditions: 18 hours
Method: as §1, §3

ASS1 = experiment: RNA-seq of compound-treated primary human hepatocytes, ASS1 expression; format: cell-based
OTC [6] = experiment: RNA-seq of compound-treated primary human hepatocytes, OTC expression; format: cell-based; conditions: primary human hepatocytes, RNA-seq
urea cycle genes = experiment: RNA-seq of primary human hepatocytes, compounds that modulate multiple urea cycle-related genes; format: cell-based; conditions: primary human hepatocytes, RNA-seq
[7] = 10 μM, primary human hepatocytes, triplicate (Table 24, FIG. 16A-B)

Structure (SMILES): CCNC(=O)c1noc(-c2cc(C(C)C)c(O)cc2O)c1-c1ccc(CN2CCOCC2)cc1 [Luminespib]
- Relative NAGS level vs Untreated (±Standard Deviation) (NAGS; 1 μM, primary human hepatocytes, triplicate (Table 21, FIG. 13)): 1.32 ± 0.30
- Relative SLC25A13 level vs Untreated (±Standard Deviation) (SLC25A13; 10 μM): 1.55 ± 0.02
- CPS1 Expression mRNA FC (CPS1 [1]; 0.3 uM): 0.86
- CPS1 Expression mRNA FC (CPS1 [1]; 3 uM): 1.39
- OTC Expression mRNA FC (OTC [2]; 0.3 uM): 0.81
- OTC Expression mRNA FC (OTC [2]; 3 uM): 3.07
- Relative ARGI level vs Untreated (±Standard Deviation) (ARG1; 10 μM, primary human hepatocytes, triplicate (Table 17, FIG. 9)): 1.34 ± 0.07
- Relative SLC25A15 level vs Untreated (±Standard Deviation) (SLC25A15; 3 μM, primary human hepatocytes, triplicate (Table 24, FIG. 16A-B)): 1.32 ± 0.24
- Relative SLC25A15 level vs Untreated (±Standard Deviation) (SLC25A15; [7]): 1.55 ± 0.02 and 1.82 ± 0.08

Structure (SMILES): CC1(C)CC[C@]2(C(=O)O)CC[C@]3(C)[C@H](C(=O)C=C4[C@@]5(C)C=C(C#N)C(=O)C(C)(C)[C@@H]5CC[C@]43C)[C@@H]2C1 [Bardoxolone]
- Max Value (OTC/GeoMean of HKs; DMSO = 1) (OTC [3]): 2.76

Structure (SMILES): O=C(NCCCNc1nc(Nc2cccc(CN3CCOCC3)c2)ncc1C1CC1)C1CCC1 [MRT67307]
- Max Value (OTC/GeoMean of HKs; DMSO = 1) (OTC [3]): 1.68

Structure (SMILES): CNC(=O)c1ccc(C)c(-n2c(C)cc(OCc3ccc(F)cc3F)c(Br)c2=O)c1 [PH-797804]
- Max Value (OTC/GeoMean of HKs; DMSO = 1) (OTC [3]): 1.53

Structure (SMILES): COc1cc2c(cc1OC)CN(C(=O)/C=C/c1c(-c3ccccc3)n(C)c3ncccc13)CC2 [SIS3]
- Fold change (Log 2) vs untreated, NAGS expression (NAGS): 0.64 Log 2
- Max Value (OTC/GeoMean of HKs; DMSO = 1) (OTC [3]): 1.46

Structure (SMILES): C=CCNc1c(O)cc2c(O)c1C[C@@H](C)C[C@H](OC)[C@H](O)[C@@H](C)/C=C(\C)[C@H](OC(N)=O)[C@@H](OC)/C=C\C=C(/C)C(=O)N2 [Retaspimycin Hydrochloride]
- OTC mRNA FC, Donor A (OTC [4]; 0.01 uM): 1.40
- OTC mRNA FC, Donor B (OTC [4]; 0.01 uM): 1.31
- OTC mRNA FC, Donor A (OTC [4]; 0.03 uM): 5.91
- OTC mRNA FC, Donor B (OTC [4]; 0.03 uM): 1.78
- OTC mRNA FC, Donor A (OTC [4]; 0.1 uM): 9.07
- OTC mRNA FC, Donor B (OTC [4]; 0.1 uM): 5.18
- Relative SLC25A13 level vs Untreated (±Standard Deviation) (SLC25A13; 0.3 μM): 1.35 ± 0.27
- Relative SLC25A13 level vs Untreated (±Standard Deviation) (SLC25A13; 1 μM): 1.31 ± 0.08
- Relative SLC25A13 level vs Untreated (±Standard Deviation) (SLC25A13; 3 μM): 1.54 ± 0.17
- Relative SLC25A13 level vs Untreated (±Standard Deviation) (SLC25A13; 10 μM): 1.45 ± 0.01
- CPS1 mRNA FC, Donor A (CPS1 [5]; 0.01 uM): 1.54
- CPS1 mRNA FC, Donor B (CPS1 [5]; 0.01 uM): 1.29
- CPS1 mRNA FC, Donor A (CPS1 [5]; 0.03 uM): 3.17
- CPS1 mRNA FC, Donor B (CPS1 [5]; 0.03 uM): 1.67
- CPS1 mRNA FC, Donor A (CPS1 [5]; 0.1 uM): 3.76
- CPS1 mRNA FC, Donor B (CPS1 [5]; 0.1 uM): 2.57
- CPS1 Expression mRNA FC (CPS1 [1]; 0.3 uM): 1.23
- CPS1 Expression mRNA FC (CPS1 [1]; 3 uM): 2.24
- OTC Expression mRNA FC (OTC [2]; 0.3 uM): 2.98
- OTC Expression mRNA FC (OTC [2]; 3 uM): 2.53
- Relative ARGI level vs Untreated (±Standard Deviation) (ARG1): 1.31 ± 0.12
- Relative SLC25A15 level vs Untreated (±Standard Deviation) (SLC25A15; Hydrochloride): 1.35 ± 0.27 and 1.31 ± 0.08 and 1.54 ± 0.17 and 1.45 ± 0.01 and 1.60 ± 0.25 and 1.67 ± 0.17 and 1.93 ± 0.13 and 1.77 ± 0.11
- Relative ASS1 level vs Untreated (±Standard Deviation) (ASS1): 1.38 ± 0.13

Structure (SMILES): Cl.Cn1c(=O)c(Oc2ccc(F)cc2F)cc2cnc(NC3CCOCC3)nc21 [R1487 Hydrochloride]
- Max Value (OTC/GeoMean of HKs; DMSO = 1) (OTC [3]): 1.64
- Relative SLC25A15 level vs Untreated (±Standard Deviation) (SLC25A15; 1 μM, primary human hepatocytes, triplicate (Table 24, FIG. 16A-B)): 1.56 ± 0.16
- Relative SLC25A15 level vs Untreated (±Standard Deviation) (SLC25A15; [7]): 1.51 ± 0.09

Structure (SMILES): NS(=O)(=O)C#Cc1ccccc1 [Pifithrin-μ]
- OTC expression, Fold change (Log 2) vs untreated (OTC [6]): 0.79 Log 2
- Fold change (Log 2) vs untreated, NAGS expression (NAGS; primary human hepatocytes, RNA-seq (Table 6)): 1.18 Log 2
- number of urea cycle genes whose expression was significantly up-regulated (urea cycle genes): three
- Up-regulated Genes (urea cycle genes; urea cycle-related genes significantly increased (Table 10)): OTC, NAGS, ARG1
- CPS1 Expression mRNA FC (CPS1 [1]; 0.3 uM): 0.98
- CPS1 Expression mRNA FC (CPS1 [1]; 3 uM): 1.05
- OTC Expression mRNA FC (OTC [2]; 0.3 uM): 1.20
- OTC Expression mRNA FC (OTC [2]; 3 uM): 1.29
- Fold change (Log 2) vs untreated, ARG1 expression (ARG1; primary human hepatocytes, RNA-seq (Table 7)): 1.87 Log 2
